This is an account of results in patent publication US20200239530A1, “COMPOUNDS AND METHODS OF MODULATING PROTEIN DEGRADATION” (Vividion Therapeutics, Inc., priority 2017, published 2020).

This test has as its target T1, KIAA0664 Clustered mitochondria protein homolog (Homo sapiens, UniProt O75153).
T1 construct: Cells were resuspended in cold PBS on ice and sonicated with a probe sonicator to achieve lysis; endogenous in cells
T1 sequence (O75153 1-1309): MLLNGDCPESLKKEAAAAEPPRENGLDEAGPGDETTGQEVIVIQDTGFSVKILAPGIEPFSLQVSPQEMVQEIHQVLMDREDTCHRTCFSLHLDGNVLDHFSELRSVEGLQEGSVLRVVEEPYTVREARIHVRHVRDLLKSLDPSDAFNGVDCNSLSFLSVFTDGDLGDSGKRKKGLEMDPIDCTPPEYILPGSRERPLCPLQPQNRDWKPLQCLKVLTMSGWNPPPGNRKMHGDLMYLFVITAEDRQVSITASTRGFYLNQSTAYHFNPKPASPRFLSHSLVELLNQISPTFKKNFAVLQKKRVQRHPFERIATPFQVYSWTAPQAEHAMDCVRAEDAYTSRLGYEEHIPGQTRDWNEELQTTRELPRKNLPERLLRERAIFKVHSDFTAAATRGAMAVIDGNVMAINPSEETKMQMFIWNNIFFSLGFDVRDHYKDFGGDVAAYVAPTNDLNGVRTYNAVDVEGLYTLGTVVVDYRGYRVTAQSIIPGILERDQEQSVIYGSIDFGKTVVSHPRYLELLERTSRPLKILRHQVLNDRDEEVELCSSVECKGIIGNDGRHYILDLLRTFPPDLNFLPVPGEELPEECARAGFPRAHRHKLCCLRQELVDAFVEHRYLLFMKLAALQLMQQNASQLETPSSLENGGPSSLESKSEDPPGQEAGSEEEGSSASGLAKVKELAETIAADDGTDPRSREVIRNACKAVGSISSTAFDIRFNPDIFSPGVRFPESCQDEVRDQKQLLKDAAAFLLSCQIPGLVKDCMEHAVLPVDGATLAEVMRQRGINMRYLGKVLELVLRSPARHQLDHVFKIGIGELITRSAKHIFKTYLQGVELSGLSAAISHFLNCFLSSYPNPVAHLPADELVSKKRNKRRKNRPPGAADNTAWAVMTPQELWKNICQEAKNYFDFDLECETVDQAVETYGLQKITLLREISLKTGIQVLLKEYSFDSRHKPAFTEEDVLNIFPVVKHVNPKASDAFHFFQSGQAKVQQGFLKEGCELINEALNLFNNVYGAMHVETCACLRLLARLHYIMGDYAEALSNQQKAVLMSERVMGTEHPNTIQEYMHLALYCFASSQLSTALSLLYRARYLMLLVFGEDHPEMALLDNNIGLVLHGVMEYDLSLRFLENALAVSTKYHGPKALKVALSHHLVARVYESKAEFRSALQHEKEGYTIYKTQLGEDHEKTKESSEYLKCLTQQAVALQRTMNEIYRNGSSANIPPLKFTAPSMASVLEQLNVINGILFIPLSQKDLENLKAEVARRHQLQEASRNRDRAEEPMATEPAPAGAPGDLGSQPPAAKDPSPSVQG
Description: Cysteine liganding, probe competition. The test is classed as binding. Summed up:
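Lysates from probe-sonicated cells in PBS (5 mg/ml proteome) were exposed to compound for 1 hr at 25° C, then labelled with desthiobiotin iodoacetamide probe (10 mM stock) for 1 hr at 25° C. Probe-tagged peptides were streptavidin-enriched after trypsin digestion.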

The structures appear in SMILES notation.

As for `COc1ccc2c(c1)CCCN2C(=O)CCl` [KB02], the Liganded entry (KIAA0664 Res# 333, uniprot O75153) is given as “YES”.

Turning to `O=C(CCl)Nc1cc(C(F)(F)F)cc(C(F)(F)F)c1` [KBO3], where the note is “uniprot O75153”, the “100 Max” value worked out at 23.11, the 100 ave came out at 9.323 and the 500 ave was found to be 51.405. Under “uniprot O75153, in % (unit assumed)”, the “500 Max” value worked out at 73.65.
